# Columns and labels:
# Aqueous solubility = assay type: physicochemical; settings: water, 4° C.
# [1] = Stability of a solution in pH 8 aqueous buffer on standing for 12 weeks at 50° C.; assay type: physicochemical
# [2] = aqueous solution; Higuchi et al. 1955; cited from earlier work
Structure (SMILES),solubility (Aqueous solubility) [mg/mL],number of degradation products detected by H.P.L.C. ([1]; H.P.L.C. techniques),hydrolytic stability ([1]; aqueous solutions),"remaining at 2016 h ([1]; pH 8 aqueous buffer, 12 weeks at 50° C., read-out: eletriptan left (relative to the original weight)) [%]",effect of caffeine on hydrolytic degradation [2]
CN1CCC[C@@H]1Cc1c[nH]c2ccc(CCS(=O)(=O)c3ccccc3)cc12 [Eletriptan hemisulphate],> 100,At least five,hydrolytically unstable,< 85,
CCOC(=O)c1ccc(N)cc1 [benzocaine],,,,,substantially reduces the hydrolytic degradation
